How the values were obtained:
[1] = system: bovine tubulin; assay: Tubulin polymerization assay; type: biochemical; details: cell-free, bovine tubulin 1.8 mg/ml; flubendazole 100 μM
Description: (§1) A representative figure is shown.
Polymerization of bovine tubulin was measured according to Beyer et al^28. Briefly, bovine tubulin (1.8 mg/ml; Cytoskeleton; Denver, USA) was added to ice cold polymerization buffer (PEM; 80 mM PIPES, 0.5 mM EGTA, 2 mM MgCl2, 10% glycerol and 1 mM GTP) and centrifuged at top speed in a microcentrifuge for 5 min at 4° C. […] Following addition of tubulin, the plate was immediately placed in the spectrophotometer, which was maintained at 37° C., and the absorbance measured every 3 minutes for 2.5 h at 340 nm.

[2] = system: OCI-AML2 cells; assay: MTS cell growth and viability assay, OCI-AML2; type: cell-based; details: OCI-AML2 cells, FIG. 1A
Description: (A) OCI-AML2 cells were treated for 72 h with increasing concentrations of benzimidazoles. After incubation, cell growth and viability was measured by the MTS assay. Data represent the mean percentage of viable cells ±SD from a representative experiment.

[3] = system: advanced solid tumors; details: Phase I, cited from earlier work
[4] = system: leukemia cell lines; assay: Screen of library of 110 drugs for cytotoxicity; type: cell-based
Description: OCI-AML2 leukemia cells were treated with increasing concentrations of 8 benzimidazoles. Seventy two hours after incubation, cell growth and viability was measured by the MTS assay.

[5] = system: bovine tubulin; assay: Site of binding to tubulin (colchicine-tubulin fluorescence); details: tubulin 5.0 μM, 100 μM drug 30 min, then colchicine 10 μM 60 min
Description: (C) Tubulin (5.0 μM) was incubated for 30 min with 100 μM vinblastine, 100 μM flubendazole, or buffer control. […] A representative figure is shown.
The site of flubendazole binding was determined similar to Gupta et al^19. Bovine tubulin (5.0 μM) was incubated with 100 μM flubendazole, 100 μM vinblastine or buffer control for 30 min at 37° C.

[6] = system: CEM; assay: MTS cell growth and viability assay, CEM; type: cell-based; details: 3 replicates
Description: (§2) Leukemia (U937, MDAY, CEM, CEM-VBL) and solid tumor cell lines (PPC-1, HeLa) were cultured in RPMI 1640 medium. The epidermoid carcinoma cell lines KB-3-1 and KB-4.0-HTI^23 were grown in Dulbecco's Modified Eagle Medium. The lung carcinoma cell lines A549 and A549.EpoB40 were grown in RPMI with the latter supplemented with 20% fetal calf serum (FCS), and 40 nM epothilone B.^24 Leukemia cell lines OCI-AML2, CEM, and NB4 and all the myeloma cell lines (OPM2, KMS11, JJN3 LP1, H929, L1, KMS12, KSM18 and OCI My5) were maintained in Iscove's Modified Dulbecco's Medium (IMDM). TEX cells were maintained in IMDM, 15% FCS, 1% penicillin-streptomycin, 2 mM L-glutamine, 20 ng/mL SCF, 2 ng/mL IL-3. Unless otherwise noted, all media were supplemented with 10% FCS, 100 units/mL of streptomycin and 100 μg/mL of penicillin (all from Hyclone, Logan, Utah). Cells were incubated in a humidified air atmosphere containing 5% CO2 at 37° C.
(§3) Cell growth and viability was measured using the 3-(4,5-dimethylthiazol-2-yl)-5-(3-carboxymethoxyphenyl)-2-(4-sulfophenyl)-2H-tetrazolium inner salt (MTS) reduction assay (Promega, Madison, Wis.) according to the manufacture's protocol and as previously described^25. Cells were seeded in 96 well plates and treated with drug for 72 h. Optical density (OD) was measured at 490 nm.

[7] = system: CEM-VBL; assay: MTS assay, CEM-VBL (Pgp over-expressing); type: cell-based
Description: Over-expression of P-glycoprotein (Pgp, MDR1) renders cells resistant to vinca alkaloid microtubule inhibitors.^43 Therefore, the effects of Pgp over-expression on flubendazole's cytotoxicity were tested. CEM-VBL cells over-express Pgp,^44 which was confirmed with a rhodamine dye exclusion assay. CEM wild type and CEM-VBL cells were treated with increasing concentrations of flubendazole or vinblastine and cell viability measured by the MTS assay (Table 1). […] In contrast, CEM-VBL cells over-expressing Pgp were resistant to vinblastine at concentrations greater than 5.0 μM (Table 1).
as §2, §3

[8] = system: bovine tubulin; assay: Measurement of tubulin sulfhydryl groups (DTNB); type: biochemical; details: flubendazole 100 μM, vinblastine 10 μM
Description: as §1
The ability of microtubule target drugs to alter tubulin structure was assessed by measuring the number of reactive cysteine residues using the sulfhydryl reagent 5,5′-Dithio-bis(2-nitrobenzoic acid) (DTNB; Sigma) as previously described^19,29. […] After incubation, DTNB was added (100 μM final concentration) and the absorbance was measured in a 1 cm path length cuvette at 412 nm for 60 min at 37° C. The number of sulfhydryl groups were determined by using a molar extinction coefficient for DTNB of 13 600 (M^−1, cm^−1).^29

[9] = system: OCI-AML2 cells; details: after 16 days of treatment; flubendazole 15 mg/kg, vinblastine 0.3 mg/kg
Description: Sub-lethally irradiated SCID mice were injected subcutaneously with OCI-AML2 cells (n=20; 10 per group). After implantation, mice were treated with 50 mg/kg flubendazole (A), 20 mg/kg flubendazole (B), or vehicle control by intraperitoneal injection daily. Tumor volume was measured over time. After 16 days (20 mg/kg dose) or 18 days (50 mg/kg dose), mice were sacrificed and tumors were excised, measured and weighted.
Sub-lethally irradiated SCID mice were injected subcutaneously with OCI-AML2 cells (n=40; 10 per group). […] After 16 (C) or 18 (D) days, mice were sacrificed and tumors were excised, measured and weighted. Data represent the mean±SD tumor weight.
Sub-lethally irradiated SCID mice were injected subcutaneously in the left flank with leukemia OCI-AML2 (2.0×10^6) or myeloma OPM2 (1.0×10^7) cells. Mice were then randomly assigned to receive flubendazole (in 0.9% NaCl and 0.01% tween-80) or vehicle control (0.9% NaCl and 0.01% tween-80) intraperitoneally. […] Tumor volumes (tumor length×width^2×0.5236) were monitored daily using calipers. At the end of the experiment (16-18 days), mice were sacrificed, tumors excised and tumor volume and weight measured. All animal studies were carried out according to the regulations of the Canadian Council on Animal Care and with the approval of the local ethics review board.

c1ccc2[nH]cnc2c1 [1,3-benzidiazole]
effect on tubulin polymerization / microtubule formation [1]: did not inhibit microtubule formation
induction of cell death [2]: did not induce cell death

CCCSc1ccc2nc(NC(=O)OC)[nH]c2c1 [albendazole]
patients with severe neutropenia ([3]; 7 patients): 3 patients
patients with reduced levels of the tumor markers AFP and CEA ([3]; advanced solid tumors): 2 of 7

COC(=O)Nc1nc2ccc(C(=O)c3ccccc3)cc2[nH]1 [mebendazole]
cytotoxicity in library screen [4]: cytotoxic

c1ccc2[nH]c(-c3cscn3)nc2c1 [thiabendazole]
effect on tubulin polymerization / microtubule formation [1]: did not inhibit microtubule formation
induction of cell death [2]: did not induce cell death

vinblastine
colchicine fluorescence (colchicine binding to tubulin) [5]: had no effect
IC50 [6]: 140 ± 10 nM
IC50 ([7]; CEM-VBL, 3 replicates): > 5000 nM
sensitivity of CEM-VBL cells compared to wild type controls ([7]; Pgp over-expression): resistant
reduction in number of reactive cysteines compared to buffer control [8]: 8.6±2.5
mouse body weight [9]: does not affect mouse body weight
